Experimental data from a melting point compilation (Tetko et al.; mined from patent text by program, amines drawn as free bases though some values may be those of a salt).

| Structure (SMILES) | melting point [°C] |
| --- | --- |
| CCCCCCC1CC(=O)C2=C(C1)NC(=O)CC2 (stereo not given) | 142 to 144 |
| CC(=O)SCCCc1ccc(C2OCC(C)(C)CO2)cc1 | 44 |
| CC(=O)N(c1ccc(O)cc1)c1ccc2cc(O)ccc2c1 | 255 |
| C=C(OCC)c1cc(C(=O)OC)c(NC(C)=O)cc1C(F)(F)F | 65 to 73 |
| COC(=O)c1ccc2c(c1C(=O)OC)C(=O)OC2=O | 178 to 180 |
| Cc1cc(C(C)(C)CO)c(Cl)nn1 | 151 to 153 |
| N#Cc1cc(Br)ccc1CBr | 81 |
| Clc1ccccc1-c1n[nH]c(-c2ccccc2Cl)n1 | 159 to 160 |
| CC(=O)OCCCNC(=O)CCC(NC(=O)C=Cc1ccco1)C(=O)NCCCOC(C)=O (stereo not given) | 132 to 134 |
| COc1ccc(CN2C(=O)C3(COc4cc(OC(F)(F)F)ccc43)c3ccccc32)cc1 (stereo not given) | 82 to 84 |
| N#CNC(=Nc1ccncc1)NCCCCCOc1ccccc1 | 188 to 189 |
| CCOC1(c2ccccc2)CCN(C)CC1O (stereo not given) | 145 to 146 |
| CC#CC1Cc2ccc(C(=O)CCC(=O)N3CCC(c4ccc(Cl)cc4)CC3)cc2CCN1 (stereo not given) | 132 to 134 |
| O=C1c2ccccc2C(=O)c2cc(S(=O)(=O)NCCCN3CCOCC3)ccc21 | 151 to 156 |
| CC1(C)CCc2c(sc3cc(OS(=O)(=O)Cc4ccccc4OC(F)(F)F)ccc3c2=O)C1 | 249 |
| C/C(=C/C(=O)O)c1ccn(-c2c(C)cccc2C)c1 | 78 to 80 |
| O[C@H](COc1cccc2[nH]ccc12)CN1CC=C(c2c[nH]c3c(Cl)cccc23)CC1 | 85 to 90 |
| CC(C)(C)c1cc(Nc2ccccc2C=O)cc(C(C)(C)C)c1O | 105 to 107 |
| CCOC(=O)C1=C(COCC(C)(O)c2ccco2)NC(C)=C(C(=O)OC)C1c1cccc(Cl)c1Cl (stereo not given) | 88 to 90 |
| CCNC(=S)NS(=O)(=O)c1cc2c(cc1OC)OC(C)(C)C(NC(=O)c1cc(F)ccc1OC)C2 (stereo not given) | 211 |
| CCc1cc2c(c(Sc3ccccc3)cc(=O)n2Cc2ccc(C(=O)O)cc2)c(CC)n1 | 260 to 262 |

| Structure (SMILES) | melting point [°C] |
| --- | --- |
| COc1cc(OC)cc(N2CCN(C(=O)N(CC3CC3)c3cc4ccccc4nc3OC)CC2)c1 | 118 to 120 |
| COCc1cc(-c2ncn(-c3cccc(Oc4ccccc4)c3)c2C)on1 | 83 |
| CCC12CCC(=O)C=C1c1c(cc(OC(C)C(=O)OC3COC(C)(C)O3)c(Cl)c1Cl)C2 (stereo not given) | 143 to 145 |
| COc1ccc(Cn2cnc3c(-c4ccco4)nc(C(F)(F)F)nc32)cc1 | 149 to 150 |
| CCc1cc(C)c(F)c(CC)c1-c1c(O)c(C)nn(C)c1=O | 193 to 195 |
| CCOc1cc(CN2CCN(c3ccc(C(=O)NC)cc3C)CC2)cc2c1OC(C)C(=O)N2 (stereo not given) | 173 to 180 |
| O=C(NCc1ccccc1)C1C=Nc2ccccc2S1 (stereo not given) | 160 to 162 |
| Cc1cc(C(=S)NCc2cccc([N+](=O)[O-])c2)c(OCC(=O)O)cc1F | 137 to 139 |
| COc1cc(Oc2ccc(C(=O)N(C3CCCCC3)C3CCCC3)cc2C)cc(OC)c1OC | 181 to 182 |
| FC(F)(F)c1ccc(-c2cc(Cl)c3ccccc3n2)cc1 | 53 to 55 |
| CNc1nc(C)cc(-n2ccc3ccccc32)n1 | 160 to 162 |
| CN(C)c1ccc(-c2nc(Cl)c(CC(N)=O)n2Cc2ccccc2)cc1 | 215 to 216 |
| Cc1cccc(-c2ccc([N+](=O)[O-])cc2)c1 | 59 to 60 |
| CC(=O)c1ccc2c(c1)C(N1CCCC1=O)=CC(C)(C)O2 | 106 to 108 |
| COc1ccc(F)c(F)c1C=NO | 199 to 201 |
| CC(C)(C)c1nc(C=NO)ncc1O | 205 to 220 |
| Brc1nc2ncnc(NCc3ccccc3)c2[nH]1 | 233 to 235 |
| CCOC(C)O[C@H]1C(=O)N(C(=O)OC(C)(C)C)[C@H]1c1ccccc1 (stereo not given in full) | 90 to 91 |
| CC(=O)SCC(C)C(=O)N1C(C(=O)O)CC2CCCCC21 (stereo not given) | 152 to 154 |
| COC(=O)c1nc(-c2ccc(Cl)c(OC)c2F)nc(N)c1C#C[Si](C)(C)C | 126 to 128 |
| O=C(O)COc1ccc2c(-c3ccc(O)cc3F)noc2c1Cl | 216 to 218 |

| Structure (SMILES) | melting point [°C] |
| --- | --- |
| O=C1CCN(c2ccc(CNC(=O)c3cccnc3Oc3ccc(F)cc3)cc2)CC1 | 138 to 139 |
| O=C(Nc1ccc(C2=CCN(C(=O)Nc3ccc(OCCO)cc3Cl)CC2)cc1)Nc1ccccc1F | 173 to 178 |
| CC1(C)Cc2cc(N)c3c(c2C(c2ccccc2)=N1)CC(C)(C)O3 | 158 to 162 |
| COc1cccc(CNC(=O)c2[nH]c3ccc(Cl)cc3c2S(=O)(=O)c2nccs2)c1 | 205 to 209 |
| CC(=O)c1cccc2c1ncn2-c1cccc([N+](=O)[O-])c1 | 175 to 177 |
| C[C@H]1CCCN(CCCOc2ccc(-c3nc4cccnc4c(=O)n3C)cc2)C1 | 83.5 to 88.5 |
| O=[N+]([O-])c1cc2nc(O)c(O)nc2cc1Br | > 300 |
| Nc1ccc(-c2ccc(=O)[nH]n2)cc1Cl | 280 to 282 |
| COC(=O)[C@H](CS)NC(=O)[C@@H](O)CO | 90 to 92 |
| CCN(CC)CCNC(=O)c1c2cc(I)ccc2nc2ccc(I)cc12 | 209 to 211 |
| O=Cc1ccc(-c2ccc3ncnc(Nc4ccc(OCc5cccc(F)c5)c(Cl)c4)c3c2)cc1 | 237 to 238 |
| OC1(C#CC2(F)C=CC(c3ccccc3)=CC2)CN2CCC1CC2 (stereo not given) | 232 to 233 |
| CN1CCN(C(=O)OC2c3cc(Cl)ccc3C(=O)N2c2ccc3ccc(Cl)nc3n2)CC1 (stereo not given) | 280 |
| O=C(O)Cc1c(C(=O)c2ccccc2)[nH]c2cccc(Cl)c12 | 206 to 209 |
| CCOC(=O)n1c(=S)[nH]c2ccc(Br)cc2c1=O | 214 |
| O=C(CC(F)(F)F)NC[C@H]1CN(c2ccc3c(c2)CCCc2cnoc2-3)C(=O)O1 | 150 to 186 |
| CC(C)Nc1cccnc1N1CCN(C(=O)c2ccc(C(=O)NCCN(C)C)cc2)CC1 | 133 |
| CCCCc1ccc(-c2ncc(C#N)c(Cl)n2)cc1 | 107 |
| CC(=O)Nc1ccccc1-c1ccc(F)cc1 | 123 to 124 |
| O=C1OC(c2ccccc2)CC(O)=C1SCc1ccccc1 (stereo not given) | 150 to 152 |

Now from value to compound:

| melting point [°C] | Structure (SMILES) |
| --- | --- |
| 139 to 140 | CC(=O)OC1(Cc2ccncc2)C(=O)N(N2CCCCC2)c2ccccc21 (stereo not given) |
| 77 to 79 | O=[N+]([O-])c1ccc(Sc2ccccc2)cc1OCc1ccccc1 |
| 210 to 212 | COCc1nc2c(N)nc3cc(CCS(C)(=O)=O)ccc3c2n1CC(C)(C)O |
| 114 | O=C(O)C(Cl)(Cl)CCCCCCCCCCCCC(Cl)(Cl)C(=O)O |
| 185 to 191 | CCC1(CC(=O)O)CCC(c2ccccc2)c2c1n(C)c1cc(OCc3ccc4ccccc4n3)ccc21 (stereo not given) |
| 225 to 258 | COc1cc(Br)c(S(C)(=O)=O)cc1C(=O)O |
| 150 to 154 | COC(=O)c1ccc2c(c1)S(=O)c1cc3c(cc1CC2)CCC3 (stereo not given) |
| 138 to 140 | COc1ccc2nc(CSc3cc(C)ccn3)[nH]c2c1 |
| 129 to 132 | c1cnc2c(OCCn3ccc4ccc5c(c43)CCNCC5)cccc2c1 |
| 48 to 49 | CCN(CC)C(=O)c1c(C)cccc1Cl |
| 235 to 237 | O=C(NN=C1c2ccc(F)cc2CC1(O)c1ccc(F)cc1)Nc1ccc(Br)cc1 (stereo not given) |
| 221 to 223 | Cc1cc(C(=O)NC2=NC(C)CC2(c2ccccc2)c2ccccc2)[nH]n1 (stereo not given) |
| 165 to 166 | Cc1cc(C)cc(C(=O)/C=C/c2nc[nH]c2C)c1 |
| 78 to 80 | CC(=O)NC[C@H]1CN(c2ccc(N3CCC4(CC3)CC4=S=O)c(F)c2)C(=O)O1 |
| 45 to 47 | CC(=O)OC/C(=C(\C(=O)N(C)CC(C)(C)S)c1ccc(F)cc1)c1ccc(S(C)(=O)=O)cc1 |
| 172 to 174 | Cn1cc([C@H]2CC[C@@H](N3CCN(c4cc(C=O)cc5cccnc45)CC3)CC2)c2cc(C#N)ccc21 |
| 139 to 141 | CC(C)C(=O)NC(=O)N1C(=O)Cc2cc(Cl)ccc21 |
| 110 to 112 | ClCCCCCOc1ccc(C2=C(c3ccc(OC4CCCCO4)cc3)CCCc3cc(OC4CCCCO4)ccc32)cc1 (stereo not given) |
| 205 to 206 | CCCCc1ncc(/C=C(\Cc2cccs2)C(=O)O)n1Cc1ccccc1[N+](=O)[O-] |

| melting point [°C] | Structure (SMILES) |
| --- | --- |
| 190 to 192 | CCCCc1ncc(/C=C(\Cc2cccs2)C(=O)O)n1Cc1ccc(C#N)cc1 |
| 165 to 168 | COC1(C(=O)Cc2ccc(-c3ccc(O)cc3)cc2)C=CC(Cl)=CC1N (stereo not given) |
| 110 to 112 | COC(=O)c1ccc(NC(=O)C(N)c2ccc3c(c2)C(C)(C)CCC3(C)C)s1 (stereo not given) |
| 133 to 134 | COc1ccc(Cl)cc1-n1cc[nH]c1=O |
| 153 to 155 | CCN(CC)C(=O)Nc1ccc(NCc2ccccc2Cl)cc1N |
| 175 | C#Cc1cn(C2CC(O)C(CO)O2)c(=O)[nH]c1=O (stereo not given) |
| 147 to 148 | CCOc1nn(-c2ccc(C(F)(F)F)cn2)cc1CCOc1ccc(CCC(=O)O)c(OC)c1 |
| 66 | O=C1c2ccccc2C(=O)N1CCCCN(CCCCN1C(=O)c2ccccc2C1=O)CCOc1cccc2c1SCCC2 |
| 285 | O=C(NCCCCN1CCC(c2ccc3c(c2)CCCC3)CC1)c1ccc(NC(=O)c2ccc(Cl)cc2)cc1 |
| 122 | COCCc1nc2c(N)nc3ccccc3c2n1CCOCCN(C)C(=O)N1CCOCC1 |
| 209 to 211 | CN(C)C1CCN(Cc2ccc(COc3cccc4c3CN(C3CCC(=O)NC3=O)C4=O)cc2)CC1 (stereo not given) |
| 125 to 127 | Nc1cccc(-c2ccc(CCN3CCN(C(=O)c4ccccc4)CC3)cc2)n1 |
| 152 to 153 | CS(=O)(=O)c1ccc(-c2coc(=O)n2-c2ccc(F)cc2)cc1 |
| 148 to 150 | CCOC(=O)c1ccc(NC(=O)c2ccc3c(c2)SCCC3(C)C)cc1 |
| 205 | N#Cc1oc2cc(Cl)ccc2c1O |
| 122 to 133 | Cn1cc(C(=O)C(=O)Cl)c2ccccc21 |
| 197 to 199 | CCNc1nc(Cl)c(Cl)c(N2CCN(CC[C@H]3CC[C@H](NC(=O)OC(C)(C)C)CC3)CC2)n1 |
| 78 to 79 | CC(=O)SCc1ccc([N+](=O)[O-])cc1[N+](=O)[O-] |
| 85 | CCCCCCNC(=O)Oc1ccc2c(c1)N(Cc1ccccc1)CCC2 |
